Test results reported in patent publication US20250066323A1, “INHIBITORS OF HUMAN RESPIRATORY SYNCYTIAL VIRUS AND METAPNEUMOVIRUS” (priority 2023, published 2025).
Read-outs that look alike come from different tables or passages of the source.

Columns and labels:
[1] = system: RSV-A2-GFP; assay: RSV-A2-GFP viral replication assay; type: cell-based, Human Respiratory Syncytial Virus
Source text: GFP sequence was derived from pJTI™ R4 Dest CMV N-EmGFP pA Vector (Invitrogen) and was cloned into the intergenic sequence between wild-type RSV-A2 P and M genes using standard recombineering techniques. Recombinant RSV-A2-GFP was propagated in Hep2 cells (human cells contains HeLa marker chromosomes and were derived via HeLa contamination, ATCC CCL-23) with infection Multiplicity of Infection (MOI) of 0.1. Virus was harvested 3 days after infection by collecting all culture material and freeze-thaw the viral culture in liquid nitrogen for at least 5 times. To generating virus working stocks, thaw frozen samples in 37° C. water bath then centrifuge at 218 g for 15 min at 4° C. Add 1/10 of 10×SPG (Biological Industries 06-3061-01-5A), mix, aliquot supernatant, and quick-freeze in liquid nitrogen then transfer to −80° C. freezer for storage. Virus titer was determined by automated plaque assay in HEp-2 cells following methods described previously (Wen Z. et al.; J Virol Methods. 2019 January; 263:88-95).
Calu-1 cells (human lung epidermoid carcinoma, ATCC HTB-54) assay ready freezedown (ARF generation described separately) were used in assays. Compound plates were prepared by dispensing compounds dissolved in DMSO into wells of 384 well coming 3985 polystyrene flat clear bottom optical imaging microplates (202.5 nL/well) using an ECHO acoustic dispenser. Each compound was tested in a 10-point serial 3-fold dilution (typical final concentrations: 403 nM-0.02 nM and 40.3 nM-0.002 nM). […] To set up the assay, thaw ARF vial(s) in 37° C. water bath until small ice crystal remain and resuspend into assay media (DMEM containing 2% FBS, 100 U/ml Penicillin-Streptomycin). Count cells using default parameters on ViCell and dilute to 20,000 cells per ml in assay media. Add RSV GFP to cells at 24,000 pfu/ml (MOI=1.2). Mix by gentle inversion. 10 μl/well of 100% DMSO was dispensed to CellTiter-Glo (CTG) assay Max_E controls wells. Dispense cells at 50 μl/well using Bravo and 50 μl filtered tips into compound plates. Cover plates with MicroClime lids loaded with 7.5 ml of assay media to minimize evaporation. Incubate at 37 degrees C. and 5% CO2 for 96 hrs. Following incubation, distinct, GFP-expressing cells are counted using an Acumen imaging system with appropriate settings. A same-well CTG assay is performed by adding 10 μl/well reconstituted CellTiter-Glo reagent (Promega G7573) and reading plates on PerkinElmer Envision according to manufacturer's instructions. Raw data were loaded and analyzed in ActivityBase. Antiviral IC50 and cytotoxicity CC50 values were determined using a 4 parameter logistic fit based on the Levenberg-Marquardt algorithm. Model: 205-4 Parameter Logistic.
Calu-1 cells were purchased from ATCC (Cat #HTB-54) and are expanded in growth media (DMEM containing 10% FBS, 100 U/ml Penicillin-Streptomycin). To make ARF, remove and discard cell culture media, briefly rinse the cell layer with PBS to remove all traces of serum. Add 2.5 ml of TrypLE Express solution and incubate until cells dislodge, then add growth media and resuspend the cells by gentle pipetting. Count cells for concentration and determine viability using a ViCell. Centrifuge at RT, 300 g for 5 min to pellet cells. Gently aspirate supernatant, flick pellet to loosen cells. Resuspend cells in an appropriate volume of freezing medium (DMEM containing 10% DMSO, 10% FBS, 100 U/ml Penicillin-Streptomycin) to achieve 5×10^6/ml. Transfer 1 ml of cell suspension to freezing vials. Put vials to CoolCell cryopreservation container and place CoolCell container upright in a −80° C. freezer overnight before transferring vials to liquid nitrogen vapor for storage.

[2] = system: hMPV-GFP; assay: hMPV-GFP viral replication assay; type: cell-based, human metapneumovirus; conditions: read-out: hMPV EC50
Protocol: GFP expressing rgHMPV #3 p3 was generated in Dr. Buchholz's lab (Biacchesi S. et al., J Virol. 2007 June; 81(11): 6057-6067.) and propagated in VERO cells (kidney tissue derived from a normal, adult African green monkey. ATCC Cat #CCL-81) with infection Multiplicity of Infection (MOI) of 0.1. Virus was harvested 4 days after infection by collecting all culture material and freeze-thaw the viral culture in liquid nitrogen twice. To generating virus working stocks, thaw frozen samples in 37° C. water bath then centrifuge at 218 g for 15 min at 4° C. Add 1/10 of 10×SPG (Biological Industries 06-3061-01-5A), mix, aliquot supernatant, and quick-freeze in liquid nitrogen then transfer to −80° C. freezer for storage. Virus titer was determined by performing titration test in 96-well plates and calculate approximate virus titer using GFP event/well data.
Compound plates were prepared by dispensing compounds dissolved in DMSO into wells of 384 well coming 3985 polystyrene flat clear bottom optical imaging microplates (202.5 nL/well) using an ECHO acoustic dispenser. Each compound was tested in a 10-point serial 3-fold dilution (typical final concentrations: 40,300 nM-2 nM). […] Continuous culture of VERO cells were maintained in complete culture media (OptiMEM supplemented with 2 mM GlutaMAX™ and 100 U/ml Penicillin-Streptomycin). To set up the assay, trypsinize VERO cells with 0.25% Trypsin-EDTA until cells dislodge, then re-suspend cells with 1 mL FBS. Spin down cells at 300 g for 5 min and wash cells twice in culture media, then count cells using default parameters on ViCell. Cells were then diluted to 100,000 cells/ml (5,000 cells/50 μl) in complete culture media+TrypLE Select (80 μl/ml). Add hMPV-GFP virus to cells at 125,000 pfu/ml (MOI=1.25). Mix by gentle inversion. 10 μl/well of 100% DMSO was dispensed to CellTiter-Glo (CTG) assay Max_E controls wells. Dispense cells at 50 μl/well using Bravo and 50 μl filtered tips into compound plates. Cover plates with MicroClime lids loaded with 7.5 ml of assay media to minimize evaporation. Lightly shake plate for 10 minutes at room temperature then incubate at 37 degrees C. and 5% CO2 for 48 hrs. Following incubation, distinct, GFP-expressing cells are counted using an Acumen imaging system with appropriate settings. A same-well CTG assay is performed by adding 10 μl/well reconstituted CellTiter-Glo reagent (Promega G7573) and reading plates on PerkinElmer Envision according to manufacturer's instructions. Raw data were loaded and analyzed in ActivityBase. Antiviral IC50 and cytotoxicity CC50 values were determined using a 4 parameter logistic fit based on the Levenberg-Marquardt algorithm. Model: 205-4 Parameter Logistic.

[3] = human respiratory syncytial virus, Calu-1, 96 h, read-out: RSV EC50, Calu-1 cells, RSV-A2-GFP MOI=1.2, 96 hrs, GFP-expressing cells counted
[4] = human metapneumovirus, Vero, 48 h
[5] = read-out: RSV EC50, Calu-1 cells, RSV-A2-GFP MOI=1.2, 96 hrs, GFP-expressing cells counted
[6] = VERO cells, hMPV-GFP MOI=1.25, 48 hrs, GFP-expressing cells counted

Structure (SMILES) | EC50 [1, 3] | EC50 [2, 4] | EC50 [1, 5] | EC50 [2, 6]
Cn1nc(-c2cscn2)cc1C(=O)NCC(C)(O)c1cc(C(C)(C)N)cc(-n2ccc3c(F)cccc32)n1 (single isomer, unassigned) [Example 12-B] | < 10 nM | > 100 nM | – | –
Cn1nc(-c2cscn2)cc1C(=O)NCC(C)(O)c1cc(C(C)(C)N)cc(-c2ccc(Cl)cc2)n1 (single isomer, unassigned) [Example 13-B] | < 10 nM | > 100 nM | – | –
Cc1ccc(-c2cc(C(C)(C)N)cc(C(C)(O)CNC(=O)c3cc(-c4cscn4)nn3C)n2)cc1 (single isomer, unassigned) [Example 14-B] | < 10 nM | > 100 nM | – | –
Cn1nc(-c2cscn2)cc1C(=O)NCC(C)(O)c1cc(C(C)(C)N)cc(-c2ccc(F)c(F)c2)n1 (single isomer, unassigned) [Example 15-B] | < 10 nM | > 100 nM | – | –
Cn1nc(-c2cscn2)cc1C(=O)NCC(C)(O)c1cc(C(C)(C)N)cc(-c2ccc(F)c(Cl)c2)n1 (single isomer, unassigned) [Example 16-B] | < 10 nM | > 100 nM | – | –
Cn1nc(-c2cscn2)cc1C(=O)NCC(C)(O)c1cc(C(C)(C)N)cc(-c2ccc(Cl)c(F)c2)n1 (single isomer, unassigned) [Example 17-B] | < 10 nM | > 100 nM | – | –
Cn1nc(-c2cscn2)cc1C(=O)NCC(C)(O)c1cc(C(C)(C)N)cc(-c2ccc(F)cc2F)n1 (single isomer, unassigned) [Example 18-B] | < 10 nM | > 100 nM | – | –
Cc1cc(F)ccc1-c1cc(C(C)(C)N)cc(C(C)(O)CNC(=O)c2cc(-c3cscn3)nn2C)n1 (single isomer, unassigned) [Example 19-B] | < 10 nM | > 100 nM | – | –
Cn1nc(-c2cscn2)cc1C(=O)NCC(C)(O)c1cc(C(C)(C)N)cc(-c2ccc(F)c(F)c2F)n1 (single isomer, unassigned) [Example 20-B] | < 10 nM | > 100 nM | – | –
CCC(O)(CNC(=O)c1cc(-c2cscn2)nn1C)c1cc(C(C)(C)N)cc(-c2ccc(F)cc2)n1 (single isomer, unassigned) [Example 21-A] | < 10 nM | > 100 nM | – | –
CCC(O)(CNC(=O)c1cc(-c2cscn2)nn1C)c1cc(C(C)(C)N)cc(-c2ccc(F)cc2)n1 (single isomer, unassigned) [Example 21-B] | – | – | 10 to 100 nM | > 100 nM
Cc1nc(-c2ncccn2)sc1C(=O)NCC(O)(c1cc(C(C)(C)N)cc(-c2ccc(F)cc2)n1)C1CC1 (single isomer, unassigned) [Example 22-A] | – | > 100 nM | > 100 nM | –
Cc1nc(-c2ncccn2)sc1C(=O)NCC(O)(c1cc(C(C)(C)N)cc(-c2ccc(F)cc2)n1)C1CC1 (single isomer, unassigned) [Example 22-B] | – | – | < 10 nM | > 100 nM
Cn1nc(-c2cscn2)cc1C(=O)NCC(O)(c1cc(C(C)(C)N)cc(-c2ccc(F)cc2)n1)C1CC1 (single isomer, unassigned) [Example 23-B] | < 10 nM | > 100 nM | – | –
Cn1nc(-c2cscn2)cc1C(=O)NCC(O)(c1cc(C(C)(C)N)cc(-c2ccc(F)cc2)n1)C(F)F (single isomer, unassigned) [Example 24-A] | < 10 nM | > 100 nM | – | –
Cn1nc(-c2cscn2)cc1C(=O)NCC(O)(c1cc(C(C)(C)N)cc(-c2ccc(F)cc2)n1)C(F)F (single isomer, unassigned) [Example 24-B] | – | – | 10 to 100 nM | > 100 nM
Cc1nc(-c2ncccn2)sc1C(=O)NCC(O)(c1cc(C(C)(C)N)cc(-c2ccc(F)cc2)n1)C(F)(F)F (single isomer, unassigned) [Example 25-A] | – | > 100 nM | 10 to 100 nM | –
Cc1nc(-c2ncccn2)sc1C(=O)NCC(O)(c1cc(C(C)(C)N)cc(-c2ccc(F)cc2)n1)C(F)(F)F (single isomer, unassigned) [Example 25-B] | – | – | > 100 nM | > 100 nM
Cn1nc(-c2cscn2)cc1C(=O)NCC(O)(c1cc(C(C)(C)N)cc(-c2ccc(F)cc2)n1)C(F)(F)F (single isomer, unassigned) [Example 26-A] | < 10 nM | > 100 nM | – | –
Cn1nc(-c2cscn2)cc1C(=O)NCC(C)(O)c1cc(C2(C)CCNC2)cc(-c2ccc(F)cc2)n1 (single isomer, unassigned) [Example 27-A] | – | > 100 nM | > 100 nM | –
Cn1nc(-c2cscn2)cc1C(=O)NCC(C)(O)c1cc(C2(C)CCNC2)cc(-c2ccc(F)cc2)n1 (single isomer, unassigned) [Example 27-B] | – | – | > 100 nM | > 100 nM
Cn1nc(-c2cscn2)cc1C(=O)NCC(C)(O)c1cc(C2(C)CCNC2)cc(-c2ccc(F)cc2)n1 (single isomer, unassigned) [Example 27-C] | – | – | < 10 nM | > 100 nM
Cn1nc(-c2cscn2)cc1C(=O)NCC(C)(O)c1cc(C2(C)CCNC2)cc(-c2ccc(F)cc2)n1 (single isomer, unassigned) [Example 27-D] | – | – | < 10 nM | > 100 nM
Cn1nc(-c2cscn2)cc1C(=O)NCC(C)(O)c1cc2c(c(-c3ccc(F)cc3)n1)OCC2(C)N (single isomer, unassigned) [Example 28-A] | – | > 100 nM | < 10 nM | –
Cn1nc(-c2cscn2)cc1C(=O)NCC(C)(O)c1cc2c(c(-c3ccc(F)cc3)n1)OCC2(C)N (single isomer, unassigned) [Example 28-B] | – | – | 10 to 100 nM | > 100 nM
Cn1nc(-c2cscn2)cc1C(=O)NCC(C)(O)c1cc2c(c(-c3ccc(F)cc3)n1)OCC2(C)N (single isomer, unassigned) [Example 28-C] | – | – | > 100 nM | > 100 nM
